Read-outs that look alike come from different tables or passages of the source. No end group written: not given here.
Key:
[1] = biological target: T1, IB4 lectin (Griffonia simplicifolia, UniProt Q8W1R6); experiment: Elisa: inhibition of IB4 lectin binding to Galα(1,3)Gal-BSA; settings: for Inhibition of IB4 lectin binding to Galα(1,3)Gal-BSA (in words) / Inhibition of binding of IB4 to Galα(1,3)Gal-BSA: Elisa; for Inhibition of IB4 lectin binding to Galα(1,3)Gal-BSA (in words): varying concentrations of inhibitor; for Inhibition of binding of IB4 to Galα(1,3)Gal-BSA: peptide concentration 5 mM (FIG. 8a)
T1 sequence (Q8W1R6 1-247): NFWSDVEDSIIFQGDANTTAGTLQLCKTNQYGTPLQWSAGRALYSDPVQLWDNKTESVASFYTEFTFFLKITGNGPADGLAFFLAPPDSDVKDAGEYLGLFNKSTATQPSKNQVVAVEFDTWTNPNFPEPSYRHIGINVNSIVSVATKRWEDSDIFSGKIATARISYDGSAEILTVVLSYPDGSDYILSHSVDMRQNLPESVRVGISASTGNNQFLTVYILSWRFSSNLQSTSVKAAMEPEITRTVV
Description: (§1) 50 μl of either purified anti-Galα(1,3)Ga IgG or biotinylated IB4 lectin was added to the wells, incubated for 45 minutes at 22° C., washed with PBS-0.05% Tween 20, and 50 μl of the relevant IIRP conjugate added and incubated for a further 45 minutes before washing and the addition of 50 μl of substrate (2,2′ Azino-di-B-ethylbenzthiozoline (Zymed, San Francisco, Calif.)) and reading the OD405.
(§2) An Elisa was established to calculate the relative “affinity” of the Gal pep 1 (SEQ ID No. 1) for the IB4 lectin and for human anti-Galα(1,3)Gal antibodies, and to compare these with the affinities for α-galactosyl sugars.
(§3) Peptides or carbohydrates were examined cytofluorographically for their ability to inhibit antibody/lectin binding to the cell surface using a FACSCAN flow cytometer (Becton Dickinson, USA)[20]: 25 μl of inhibitor was mixed with 25 μl of antibody of lectin and incubated at 22° C. for 3 hours (peptides) or at 4° C. for 16 hours (carbohydrates)[14], prior to addition of appropriate targets. An Elisa assay was used to calculate the relative affinities of the sugars or the peptides for both IB4 lectin and antibodies, and were defined as the molar concentration of inhibitor giving 50% inhibition of the maximal binding of lectin or antibody.

[2] = system: human anti-Galα(1,3)Gal IgG antibodies; experiment: Elisa: inhibition of anti-Galα(1,3)Gal IgG binding to Galα(1,3)Gal-BSA; settings: for Inhibition of anti-Galα(1,3)Gal IgG binding to Galα(1,3)Gal-BSA (in words) / Inhibition of binding of anti-Galα(1,3)Gal IgG to Galα(1,3)Gal-BSA: Elisa; for Inhibition of anti-Galα(1,3)Gal IgG binding to Galα(1,3)Gal-BSA (in words): varying concentrations of inhibitor; for Inhibition of binding of anti-Galα(1,3)Gal IgG to Galα(1,3)Gal-BSA: peptides at 5 mM (FIG. 8b)
Description: as §1, §2, §3

[3] = biological target: T1, IB4 lectin; experiment: Cytofluorographic inhibition of IB4 lectin binding to PIEC cells; format: cell-based
Description: FIGS. 3(A-C). […] (A); Staining of PIEC cells with IB4 lectin (1 μg/ml). (B) Staining of PIEC cells with NHS (final dilution of 1/50) and anti-human Ig. (C) Staining of PBL with IB4 lectin (μg/ml). Peptides were used at 5 mM (A and C) or at 20 mM (B). In each panel profile “a” represents binding in the presence of Gal pep 1 (SEQ ID No. 1), and profile “b” the binding in the presence of CD48 pep 1 (SEQ ID No. 11).
FIGS. 6(A-B). […] Varying concentrations of peptides (shown in mM on horizontal axis) were explained for ability to inhibit the binding of IB4 lectin (1 μg/ml) to tie PIEC cells using cytofluorographic analysis. (a) Gal pep 1 (SEQ ID No. 1) (□), Muc pep 1 (SEQ ID No. 15) (∘).
FIG. 7. […] All peptides used at 5 mM, using cytofluorograhic analysis. Inhibition calculated relative to no peptide control.
(§4) The binding of lectin or antibody to the surface of pig cells was detected by hemagglutination, cytotoxicity or flow cytometry using the FACSCAN flow cytometer (Becton Dickinson, Mountain View, Calif.).
as §3

[4] = biological target: T1, IB4 lectin; experiment: biochemical
[5] = system: PIEC cells; experiment: Inhibition of cytotoxicity of NHS and complement on PIEC; format: cell-based, pig; settings: peptide 10 mM to 2.5 mM, NHS 1/25
From the text: FIG. 4. Inhibition of cytotoxicity due to natural antibody and complement by Gal pep 1 (SEQ ID No. 1). Varying concentrations of Gal pep 1 (∘) or CD48 pep 1 (♦) (shown in mM on horizontal axis) were examined in a cytotoxicity assay using NHS (final dilution of 1/25) and PEEC cells as targets.
as §4
Human cytotoxic antibodies directly damage pig endothelial cells in a pig-to-human xenograft, therefore the ability of Gal pep 1 (SEQ ID No. 1) to inhibit the cytotoxicity of human antibodies on PIEC in vitro was tested; Gal pep 1 inhibited the cytotoxicity of NHS (10 mM to 2.5 mM), whereas CD48 pep 1 (SEQ ID No. 11) had no effect (FIG. 4).

[6] = system: MCF-7 (MUC1^+HLA-A*0201^+) cells; experiment: CTL assay, HLA-A*0201/K^b spleen CTLs on human breast cancer cells; format: ex vivo, mouse; settings: HLA-A2 mice
Description: FIG. 14(A) Direct CTL assay using p815 MUC1+ (Tm2) or P815 targets. DBA/2 mice were immunised with MFP, or Gal-KLH. FIG. 14(B) CTL assay using HLA-A*0201/K^b spleen CTLs from mice immunised with either mimic or mutated mimic peptides on ^51Cr MCF-7 (MUC1^+HLA-A*0201^+) cells. ^51CrBT20 (MUC1^+HLA-A*0201^−) or MF272 (MUC1^−IILA-A*0201^+) cells were also used as targets and as well as ^51CrMCF-7 cells incubated with cold K562 cells at a 30:1 hot:cold ratio (K562, a myelogenous leukemia cell line). Vertical axis=% lysis; horizontal axis=E:T ratio.
It was next investigated whether the […] peptide (SEQ ID No. 1) be presented by HLA-A2 could immunise for HLA-H2 presented MUC1 peptides. […] Thus the […] peptide (SEQ ID No. 1) gives highly specific immune responses which appear to be directed to the human MUC1 peptide presented by MUC class I molecules.

[7] = Table 1, anti-Galα(1,3)Gal IgG 87 μg/ml, concentration giving 50% inhibition of binding, read-out: I50 anti-Galα(1,3)Gal IgG
[8] = Table 3, anti-Galα(1,3)Gal antibody (IgG) 87 μgs/ml, read-out: I50 Anti-Galα(1,3)Gal
[9] = varying peptide concentrations (FIG. 6b)

OCC1OC(OC2C(O)C(O)OC(CO)C2O)C(O)C(O)C1O (centres unmarked) [Galα(1,3)Gal]
Inhibition of IB4 lectin binding to Galα(1,3)Gal-BSA (in words) [1]: inhibited | IC50 ([1]; Table 1, biotinylated IB4 lectin […], concentration giving 50% inhibition of binding, read-out: I50 IB4): < 30 µM | IC50 ([1]; read-out: I50 IB4): < 30 µM | Inhibition of anti-Galα(1,3)Gal IgG binding to Galα(1,3)Gal-BSA (in words) [2]: inhibited | IC50 [2, 7]: 30 µM | IC50 [2, 8]: 30 µM

OCC1OC(OCC2OC(O)C(O)C(O)C2O)C(O)C(O)C1O (centres unmarked) [Melibiose, Galα(1,6)Glc]
Inhibition of IB4 lectin binding to Galα(1,3)Gal-BSA (in words) [1]: inhibited | IC50 ([1]; read-out: I50 IB4): 300 µM | Inhibition of anti-Galα(1,3)Gal IgG binding to Galα(1,3)Gal-BSA (in words) [2]: inhibited | IC50 [2, 7]: 125 to 300 µM

CC(C)[C@H](NC(=O)[C@H](CO)NC(=O)[C@H](CO)NC(=O)[C@H](CCCNC(=N)N)NC(=O)[C@H](CCC(N)=O)NC(=O)[C@@H](NC(=O)[C@H](C)NC(=O)[C@H](CO)NC(=O)[C@@H](NC(=O)[C@H](CCC(=O)O)NC(=O)[C@H](CCCCN)NC(=O)[C@H](CCC(=O)O)NC(=O)CNC(=O)CNC(=O)[C@@H]1CCCN1C(=O)[C@@H](NC(=O)[C@H](CO)NC(=O)[C@H](CO)NC(=O)[C@H](C)NC(=O)[C@H](Cc1c[nH]cn1)NC(=O)CNC(=O)[C@H](CO)NC(=O)CNC(=O)[C@@H](N)[C@@H](C)O)[C@@H](C)O)[C@@H](C)O)[C@@H](C)O)C(=O)N1CCC[C@H]1C(=O)O [Muc pep 6]
Inhibition of binding of IB4 to Galα(1,3)Gal-BSA [1]: complete inhibition | Inhibition of IB4 lectin binding to PIEC cells ([3]; peptides at 5 mM (FIG. 7)): partial inhibition

APDTRPAPGSTAPPAH [Muc pep 4]
Inhibition of binding of IB4 to Galα(1,3)Gal-BSA [1]: complete inhibition | Inhibition of binding of anti-Galα(1,3)Gal IgG to Galα(1,3)Gal-BSA [2]: partial inhibition | IC50 [2, 8]: 5000 µM | Inhibition of IB4 lectin binding to PIEC cells [3, 9]: partial inhibition

CHSTPSFTSSITTTETTS [Muc pep 10, human Muc3 VNTR]
Inhibition of IB4 lectin binding to PIEC cells ([3]; peptides at 5 mM (FIG. 7)): inhibited

CPAHGVTSAPDTRPAPGSTAP [Muc pep 1]
Inhibition of binding of IB4 to Galα(1,3)Gal-BSA [1]: complete inhibition | Inhibition of binding of anti-Galα(1,3)Gal IgG to Galα(1,3)Gal-BSA [2]: inhibited | IC50 [2, 8]: 2500 µM | Inhibition of IB4 lectin binding to PIEC cells ([3]; to a peptide concentration of 0.125 mM (FIG. 6a)): almost complete inhibition

DAHWESWL [Gal pep 1]
IC50 [1]: 300 µM | IC50 [4]: 5000 µM | Inhibition of cytotoxicity of NHS on PIEC [5]: inhibited

DLHWASWV
CTL lysis of human breast cancer cell lines [6]: specifically lyse human breast cancer cell lines

KYPTTTPISTTTMVTPTPTPTGTQTPTTT [Muc pep 9, human Muc2 VNTR]
Inhibition of binding of IB4 to Galα(1,3)Gal-BSA [1]: no inhibition | Inhibition of IB4 lectin binding to PIEC cells ([3]; peptides at 5 mM (FIG. 7)): did not inhibit

LSGVRFSAARTAHPLPQKH [TNF pep 1, control peptide, MURINE TNFβ]
Inhibition of binding of IB4 to Galα(1,3)Gal-BSA [1]: did not inhibit

PAPGSTAPPAHGVTSA [Muc pep 5]
Inhibition of binding of IB4 to Galα(1,3)Gal-BSA [1]: complete inhibition | Inhibition of IB4 lectin binding to PIEC cells [3, 9]: partial inhibition

RSSVPSSTEKNAVSMTSSVL [Muc pep 7, human Muc1 NH2 to VNTR]
Inhibition of binding of IB4 to Galα(1,3)Gal-BSA [1]: no inhibition | Inhibition of IB4 lectin binding to PIEC cells ([3]; peptides at 5 mM (FIG. 7)): did not

Source: patent US6344203B1, “Mimicking peptides in cancer therapy” (The Austin Research Institute, priority 1995, dated 2002)
